Experiments:
recombinant apoaequorin [1] = molecular target: T1, recombinant apoaequorin (Aequorea victoria, UniProt P07164); assay: Luminescence patterns and half decay time of semi-synthetic aequorins; type: biochemical; parameters: purchased Chisso Corporation; settings: for Half decay time sec.: semi-synthetic aequorin, time to reach half of the maximum luminescence intensity
Description: The dilution was dispensed into a 96-well microplate (Nunc #236108) in 5 μl/well. […] The luminescence patterns for 60 seconds were measured to determine the half decay time of luminescence (time period to reach the half of the maximum luminescence intensity).

[2] = molecular target: T2, 19 kDa protein of Oplophorus luciferase (Oplophorus gracilirostris, UniProt Q9GV45); assay: Substrate specificity, luminescence activity and emission spectra of the 19 kDa protein of Oplophorus luciferase; type: biochemical, Oplophorus gracilorostris; settings: for Maximum emission wavelength λmax (nm) / Luminescence capacity 10 secs. (%) / Luminescence activity Imax (%): Oplophorus luciferase; for Maximum emission wavelength λmax (nm): 22 to 25° C.; for Luminescence capacity 10 secs. (%): emission integrated for 10 seconds; for Luminescence capacity 10 secs. (%) / Luminescence activity Imax (%): coelenterazine = 100.0; for Quality as luminescence substrate for Oplophorus luciferase: TABLE 2
T2 construct: made in house
T2 sequence (Q9GV45 28-196): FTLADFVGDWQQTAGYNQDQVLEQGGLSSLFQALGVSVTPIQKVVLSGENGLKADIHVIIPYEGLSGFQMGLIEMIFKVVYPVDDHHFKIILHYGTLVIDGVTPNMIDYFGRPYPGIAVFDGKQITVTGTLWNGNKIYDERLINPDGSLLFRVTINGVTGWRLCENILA

Renilla luciferase = molecular target: T3, Renilla luciferase (Renilla reniformis, UniProt P27652); assay: Substrate specificity, luminescence activity and emission spectra of Renilla luciferase; type: biochemical; settings: for Maximum emission wavelength λmax (nm) / Luminescence activity Imax (%) / Luminescence capacity 10 secs. (%): Renilla luciferase; for Maximum emission wavelength λmax (nm): 22 to 25° C.; for Luminescence activity Imax (%) / Luminescence capacity 10 secs. (%): coelenterazine = 100.0; for Ability to act as substrate for Renilla luciferase: TABLE 4
T3 construct: made in house
T3 sequence (P27652 1-311): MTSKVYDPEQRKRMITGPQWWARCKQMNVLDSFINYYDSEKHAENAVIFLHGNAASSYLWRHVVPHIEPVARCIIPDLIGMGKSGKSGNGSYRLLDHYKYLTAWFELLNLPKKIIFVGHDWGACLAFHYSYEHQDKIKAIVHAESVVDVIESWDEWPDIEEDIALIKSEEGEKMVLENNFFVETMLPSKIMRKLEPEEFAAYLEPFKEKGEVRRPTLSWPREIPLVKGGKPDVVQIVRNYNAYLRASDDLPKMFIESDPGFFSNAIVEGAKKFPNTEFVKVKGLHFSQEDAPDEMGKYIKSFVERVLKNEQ
From the text: Res. Commun. (1997) 233: 349-353, which was provided for use.

Gaussia luciferase = assay: Substrate specificity, luminescence activity and emission spectra of Gaussia luciferase; settings: for Luminescence activity Imax (%) / Luminescence capacity 10 secs. (%): Gaussia luciferase, coelenterazine = 100.0
Description: The luminescence activity was measured for 10 seconds using a luminometer Luminescencer-PSN AB2200 (manufactured by Atto Co., Ltd.). The luminescence activity was measured 3 times and expressed as the maximum intensity (Imax) of luminescence.

recombinant apoaequorin [3] = molecular target: T1, recombinant apoaequorin; assay: Calcium standard curve with semi-synthetic aequorins; type: biochemical; parameters: purchased Chisso Corporation; settings: Imax versus 10^-3 M to 10^-8 M calcium
Description: The dilution series was prepared by the serial process above to prepare standard calcium solution of 10^−3 M to 10^−8 M.
The semi-synthetic aequorin obtained was concentrated using Amicon Ultra-4 (manufactured by Millipore, molecular weight cut off, 10.000).
This semi-synthetic aequorin solution (2.5 mg/ml) was diluted with 20 mM Tris-HCl (pH 7.6) containing 0.1% BSA (manufactured by Sigma), 0.01 mM EDTA and 150 mM NaCl.
The calcium standard solution prepared as described above was dispensed into a 96-well microplate (Nunc #236108) in 50 μl/well, and the semi-synthetic aequorin solution diluted was injected in […]. The luminescence intensity was measured for 60 seconds using a luminescence plate reader Centro LB960 (manufactured by Berthold) and expressed in terms of the maximum luminescence intensity (Imax). The luminescence intensity was measured for each semi-synthetic aequorin in the same fashion. Based on the maximum luminescence intensity (Imax) obtained, the calcium standard curve for each semi-synthetic aequorin was prepared.

recombinant apoaequorin [4] = molecular target: T1, recombinant apoaequorin; assay: Emission spectra of semi-synthetic aequorins by addition of calcium ions; settings: for Emission spectra of semi-synthetic aequorins compared with known analogs (FIG. 3): compared to h-CTZ and i-CTZ; for Maximum emission wavelength λmax (nm): semi-synthetic aequorin, 22 to 25° C.
Description: In a quartz cell with an optical path length of 10 mm, 1 ml of 50 mM Tris-HCl (pH 7.6) containing 1 mM EDTA and 100 μl (100 μg protein) of a solution of the regenerated semi-synthetic aequorin were charged and they were mixed. Subsequently, 100 μl of 50 mM Tris-HCl (pH 7.6) containing 0.1 ml of 10 mM calcium chloride solution was added to the mixture to trigger the luminescence reaction. The spectra were measured on a spectrofluorimeter (FP-6500, manufactured by JASCO Corporation) with the excitation source turned off. The measurement conditions used were as follows: band width, 20 nm; response, 0.5 second and scan speed, 2000 nm/min at 22 to 25° C.

recombinant apoaequorin [5] = molecular target: T1, recombinant apoaequorin; assay: Production of semi-synthetic aequorins and measurement of luminescence activity (Imax, luminescence capacity); settings: regeneration 0.5 to 18 hours at 4° C.
Description: In order to confirm the regeneration time and regeneration efficiency from apoaequorin to the semi-synthetic aequorin, the luminescence activity was assayed at the respective points of the regeneration process (at the respective points of 0.5, 1, 1.5, 2, 3 and 18 hours from the start of regeneration).
Specifically, the luminescence activity described above was measured as follows. The luminescence reaction was started by adding 100 μl of 50 mM Tris-HCl (pH 7.6) containing 50 mM calcium chloride solution to 2 μl of a solution of the semi-synthetic aequorin at each regeneration process. The luminescence activity was measured for 10 seconds with a luminometer Luminescencer-PSN AB2200 (manufactured by Atto Co., Ltd.). The measured values were represented as the maximum intensity (Imax) of luminescence. The emission for 60 seconds was integrated, which was made a luminescence capacity.

T1 sequence (P07164 other isoform, or with tags, fused parts or gaps with the stated changes): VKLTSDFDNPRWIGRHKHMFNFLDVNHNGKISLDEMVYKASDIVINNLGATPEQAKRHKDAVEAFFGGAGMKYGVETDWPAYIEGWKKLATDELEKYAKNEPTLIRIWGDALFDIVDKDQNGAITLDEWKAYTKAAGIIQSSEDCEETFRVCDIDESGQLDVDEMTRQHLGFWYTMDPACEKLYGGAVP

SMILES | Half decay time of luminescence compared with CTZ (recombinant apoaequorin [1]; semi-synthetic aequorin (FIG. 2, TABLE 1)) | Half decay time sec. (recombinant apoaequorin [1]) [s] | Maximum emission wavelength λmax (nm) [2] [nm] | Luminescence capacity 10 secs. (%) [2] [%] | Luminescence activity Imax (%) [2] [%] | Quality as luminescence substrate for Oplophorus luciferase [2] | melting point | Maximum emission wavelength λmax (nm) (Renilla luciferase) | Luminescence activity Imax (%) (Renilla luciferase) | Luminescence capacity 10 secs. (%) (Renilla luciferase) | Ability to act as substrate for Renilla luciferase (Renilla luciferase) | Luminescence activity Imax (%) (Gaussia luciferase) | Luminescence capacity 10 secs. (%) (Gaussia luciferase) | Quality as luminescence substrate for Gaussia luciferase (Gaussia luciferase; TABLE 3) | Calcium standard curve with semi-synthetic aequorin (FIG. 4) (recombinant apoaequorin [3]) | Emission spectra of semi-synthetic aequorins compared with known analogs (FIG. 3) (recombinant apoaequorin [4]) | Maximum emission wavelength λmax (nm) (recombinant apoaequorin [4]) | Ability to act as luminescence substrate for semi-synthetic aequorins (FIG. 1) (recombinant apoaequorin [5])
Cc1ccc(Cc2nc3c(Cc4ccccc4)[nH]c(-c4ccc(O)cc4)cn-3c2=O)cc1 [me-CTZ, me-coelenterazine] | longer than CTZ | 5.00 | 454.4 | 82.7 | 46.6 | relatively good luminescence substrates | 150 to 152 °C (dec.) | 472.0 | 6.6 | 7.0 | can be substrates for Renilla luciferase | 4.5 | 5.9 | effective luminescence substrates | calcium standard curves can be prepared | exhibit different emission spectra from those of known coelenterazine analogs | 469.5 | can be luminescence substrates for semi-synthetic aequorins
COc1ccc(Cc2nc3c(Cc4ccccc4)[nH]c(-c4ccc(O)cc4)cn-3c2=O)cc1 [meo-CTZ, meo-coelenterazine] | – | 1.63 | 454.5 | 108.6 | 68.1 | relatively good luminescence substrates | 137 to 139 °C (dec.) | 472.5 | 8.0 | 8.6 | can be substrates for Renilla luciferase | 13.6 | 15.5 | – | calcium standard curves can be prepared | exhibit different emission spectra from those of known coelenterazine analogs | 469.0 | can be luminescence substrates for semi-synthetic aequorins
CC(c1ccccc1)c1nc2c(Cc3ccccc3)[nH]c(-c3ccc(O)cc3)cn-2c1=O (centres unmarked) [αmeh-CTZ, αmeh-coelenterazine] | – | 0.35 | 457.0 | 19.0 | 15.6 | relatively good luminescence substrates | 143 to 145 °C (dec.) | – | 0.0 | 0.0 | – | >0.01 | >0.01 | – | calcium standard curves can be prepared | – | 467.5 | can be luminescence substrates for semi-synthetic aequorins

Reference: US9645128B2, “Substituted imidazo[1,2-A]pyrazines for measuring a transcription activity” (JNC CORPORATION, priority 2009, dated 2017)
